Paper PMC12474757, “Paving the way for future PSMA inhibitors: insights from comparative preclinical evaluations of structure modifications” (EJNMMI Radiopharmacy and Chemistry, 2025)
Several values for one entry are separate records, joined by “and”; a condition that tells them apart may be missing. Identical values can stand only once.

What was measured:
[1] = test system: LNCaP tumour-bearing mice; test: Ex vivo biodistribution in LNCaP tumour-bearing mice; design: species or system SCID mice
Protocol: The eight-week-old male SCID mice (Charles River, Massachusetts, USA) were used to generate the mouse tumour model. The implantation of 10 million LNCaP cells (ATCC, Virginia, USA) per mouse in a 1:1 mixture of Matrigel matrix (Corning, New York, USA) was performed subcutaneously behind the right shoulder of the mouse. Tumours of adequate size, representing a volume of 100–300 mm³, were observed after five to six weeks.
Ex vivo biodistribution of PSMA inhibitors in tumor-bearing mice was conducted as follows. Concisely, 30 µL of acetate buffer was added to the each ⁶⁸Ga -labelled inhibitor, namely: ⁶⁸Ga-P15, ⁶⁸Ga-P16, ⁶⁸Ga-P19, and ⁶⁸Ga-PSMA-617 to achieve physiological pH. Mice were r.o. injected with 100 µL of labelled inhibitor (2 MBq, approximately 0.5 µg of the inhibitor). Animals were divided into two groups for biodistribution studies at 1 and 2 h after administration of the respective ^68Ga-labelled PSMA inhibitor. The animals were sacrificed and autopsied after euthanasia, and organs: spleen, pancreas, stomach, intestine, kidney, liver, heart, lung, muscle, bone, and tumour were collected in scintillation vials. The vials containing the samples were weighed and measured in a Wizard2 gamma counter (PerkinElmer, USA). The measured values were then adjusted for radionuclide decay and expressed as a percentage of administered dose per gram of organ (%ID/g). The NanoScan® hybrid Positron Emission Tomography/Computed Tomography (PET/CT) machine (Mediso, Budapest, Hungary) was used for in vivo imaging specifically whole-body helical PET/CT scans. Imaging settings were: single field of view (FOV) PET scans (98.5 mm) which took 10 min for each mouse and helical CT scans (50 kVp/980 µA, 720 projections) both took place one hour after the administration. Each mouse received an injection of approximately 10 MBq of tested radiopharmaceutical. To prevent the mice’s eyes from drying out during anaesthesia eye ointment (Ophthalmo-Azulen, Zentiva, CR) was applied. Image reconstruction was performed using Mediso Tera-Tomo 3D PET iterative reconstruction (Mediso Medical Imaging Systems, Budapest, Hungary). Both reconstruction and data evaluation were performed in Mediso InterView FUSION software (Mediso Medical Imaging Systems, Budapest, Hungary) (Mediso, Budapest, Hungary). Final images were normalised to injected activity and animal weight. All organs with radiopharmaceutical accumulation were roughly delineated on the images, while their SUVmax value was recorded. The SUV41% (Standardized Uptake Value 41%) was then calculated as 41% of each SUVmax value of given hotspot and the ROI was delineated based on this value (Boellaard et al. [2015]). All images were exported in maximum intensity projection (MIP) mode. The results from the ex vivo biodistribution study were subjected to statistical analysis, namely unpaired Student’s t-test (Microsoft Excel 365, USA).

human plasma proteins = test: Binding to human plasma proteins; assay type: in vitro ADME; details: for Protein binding (%): human plasma, 37 °C, n = 2; for Binding rate to human plasma proteins: overall statement, incubation up to 120 min
Protocol: Binding to human plasma proteins was determined following this procedure: 10 µL of the ⁶⁸Ga-P15 with radioactivity of 45 kBq/100 µL was mixed with 190 µL of human plasma. The sample was then incubated at 37 °C. After 0, 30, 60 and 120 min 25 µL of the sample was collected, applied to the appropriate column and centrifuged at 2000 g for 2 minutes. The radioactivity of the samples was then measured using a gamma counter 2480 Wizard^2 (PerkinElmer, Waltham, MA, USA), and then the binding to plasma proteins was calculated using the following formula % plasma protein binding = (Aelution/Atotal)×100. The same procedure was applied when determining binding to plasma proteins of ⁶⁸Ga-P16, ⁶⁸Ga-P19, and ⁶⁸Ga-PSMA-617.

[2] = one-hour p.i., mean ± SD, n = 4

SMILES: O=C([O-])CN1CCN(CC(=O)[O-])CCN(CC(=O)N[C@H]2CC[C@H](NC(=O)[C@@H](Cc3ccc4ccccc4c3)NC(=O)CC[C@H](NC(=O)N[C@@H](CCC(=O)O)C(=O)O)C(=O)O)CC2)CCN(CC(=O)[O-])CC1.[68Ga+3] [[^68Ga]Ga-P15]
- tumour-to-muscle ratio, fold lower than [68Ga]Ga-PSMA-617 ([1]; Fig. 5): more than 7 fold
- tumour uptake, fold lower than [68Ga]Ga-P16 ([1]; one-hour p.i.): more than 5 fold
- tumour-to-muscle ratio of [68Ga]Ga-PSMA-617 relative to that of the inhibitor ([1]; one-hour p.i.): ~7.5 times
- tumour uptake, fold lower than [68Ga]Ga-P16 ([1]; two-hours p.i.): up to 10 fold
- Accumulation in the tumour ([1]; two-hours p.i., n = 4): 0.5%
- Protein binding (%) (human plasma proteins; incubation time 0 min): 26.7%
- Protein binding (%) (human plasma proteins; incubation time 30 min): 27.0%
- Protein binding (%) (human plasma proteins; incubation time 60 min): 29% and 29.4%
- Protein binding (%) (human plasma proteins; incubation time 120 min): 40% and 39.9%
- Binding rate to human plasma proteins (human plasma proteins): ≤ 40%

SMILES: O=C([O-])CN1CCN(CC(=O)[O-])CCN(CC(=O)N[C@H]2CC[C@H](NC(=O)[C@H](Cc3ccc4ccccc4c3)NC(=O)CC[C@H](NC(=O)N[C@@H](CCC(=O)O)C(=O)O)C(=O)O)CC2)CCN(CC(=O)[O-])CC1.[68Ga+3] [[^68Ga]Ga-P16]
- tumour-to-muscle ratio of [68Ga]Ga-PSMA-617 relative to that of the inhibitor ([1]; one-hour p.i.): more than twice
- Accumulation in the spleen ([1]; one-hour p.i., n = 4): 7.7 % ID/g
- Accumulation in the spleen ([1]; two-hours p.i., n = 4): 9.6 % ID/g
- Protein binding (%) (human plasma proteins; incubation time 0 min): 10% and 10.2%
- Protein binding (%) (human plasma proteins; incubation time 30 min): 10.9%
- Protein binding (%) (human plasma proteins; incubation time 60 min): 10.8%
- Protein binding (%) (human plasma proteins; incubation time 120 min): 13% and 13.4%
- Binding rate to human plasma proteins (human plasma proteins): ≤ 40%

SMILES: O=C([O-])CN1CCN(CC(=O)[O-])CCN(CC(=O)NCc2ccc(C(=O)N[C@H](C(=O)NCCCC[C@H](NC(=O)N[C@@H](CCC(=O)O)C(=O)O)C(=O)O)C(c3ccccc3)c3ccccc3)cc2)CCN(CC(=O)[O-])CC1.[68Ga+3] [[^68Ga]Ga-P19]
- tumour-to-blood ratio, times higher than [68Ga]Ga-PSMA-617 ([1]; one hour after administration): more than 1.5 times
- level in the kidney, times lower compared to [68Ga]Ga-PSMA-617 ([1]; one hour after administration, p < 0.05): up to 7 times
- tumour-to-muscle ratio of [68Ga]Ga-PSMA-617 relative to that of the inhibitor ([1]; one-hour p.i.): more than 1.6 times
- tumour-to-blood ratio [1, 2]: 9.0 ± 2.3
- tumour-to-kidney ratio [1, 2]: 0.85 ± 0.36
- Accumulation in the tumour ([1]; one-hour p.i., n = 4): 3.5 % ID/g
- tumour-to-kidney ratio ([1]; two hours post injection, mean ± SD, n = 4): 0.85 ± 0.02
- Accumulation in the tumour ([1]; two-hours p.i., n = 4): 2.0 % ID/g
- Protein binding (%) (human plasma proteins; incubation time 0 min): 56.6%
- Protein binding (%) (human plasma proteins; incubation time 30 min): 59% and 58.8%
- Protein binding (%) (human plasma proteins; incubation time 60 min): 58% and 57.7%
- Protein binding (%) (human plasma proteins; incubation time 120 min): 58% and 58.2%
